# Measured values as given in patent publication US20260297070A1, “CYCLIC [COMPOUND LEFT OUT] WRN INHIBITORS” (Nimbus Wadjet, Inc., priority 2023, published 2026).
# Biological target: T1, human Werner helicase (WRN-BV08, Uniprot Q14191, amino acids 517-1235 with L1074F point mutation) (Homo sapiens, UniProt Q14191, L1074F)
# T1 construct: Uniprot Q14191, amino acids 517-1235 with L1074F point mutation; TEV-cleavable 8×His (C, cleaved yes); made in house; host or cells: Sf9 insect cells (baculovirus)
# T1 sequence (Q14191 with tags, fused parts or gaps L1074F limits assumed): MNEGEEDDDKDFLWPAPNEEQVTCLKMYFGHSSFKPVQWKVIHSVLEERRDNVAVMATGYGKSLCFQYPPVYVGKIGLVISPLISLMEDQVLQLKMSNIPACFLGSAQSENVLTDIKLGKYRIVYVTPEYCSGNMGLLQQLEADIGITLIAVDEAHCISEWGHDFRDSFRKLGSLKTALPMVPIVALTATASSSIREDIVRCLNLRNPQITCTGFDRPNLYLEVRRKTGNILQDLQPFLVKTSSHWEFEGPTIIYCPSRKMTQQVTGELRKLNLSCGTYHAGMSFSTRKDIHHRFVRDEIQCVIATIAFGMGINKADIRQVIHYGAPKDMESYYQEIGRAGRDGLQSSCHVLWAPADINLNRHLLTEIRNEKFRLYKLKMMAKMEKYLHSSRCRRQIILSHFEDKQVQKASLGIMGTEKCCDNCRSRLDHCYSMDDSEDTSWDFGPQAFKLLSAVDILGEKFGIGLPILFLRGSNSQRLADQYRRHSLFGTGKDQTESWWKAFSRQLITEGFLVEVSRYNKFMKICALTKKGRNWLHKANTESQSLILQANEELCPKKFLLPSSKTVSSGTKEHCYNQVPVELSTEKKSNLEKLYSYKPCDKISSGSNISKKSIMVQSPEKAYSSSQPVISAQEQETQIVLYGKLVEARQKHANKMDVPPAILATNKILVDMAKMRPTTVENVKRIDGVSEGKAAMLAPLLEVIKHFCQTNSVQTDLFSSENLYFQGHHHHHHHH
# Assay: WRN (BV08) ADP-Glo Assay
# Format: biochemical
# Settings: 0.15 nM WRN, 5 μM ATP, 0.1 nM DNA duplex, 15 min preincubation, 60 min at 25° C., pH 7.5, 1% DMSO; read-out: ADP-Glo_hWRN_IC50
# Procedure, shortened: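 Untagged WRN (Sf9-expressed, TEV-cleaved) at 0.15 nM was preincubated 15 min at 25 °C with compound, then reacted 60 min at 25 °C with 5 μM ATP and 0.1 nM DNA duplex in Bicine pH 7.5, 1 mM MgCl2. ADP-Glo luminescence gave % inhibition; IC50 by four-parameter fit.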
row,SMILES,IC50 [µM]
1,"Cn1c(CC(=O)N(Cc2ccncc2)C2C=CS(=O)(=O)C2)nnc1-c1ccccc1 (stereo not drawn) [I-443, N-(1,1-dioxo-2,3-dihydro-1lambda6-thiophen-3-yl)-2-(4-methyl-5-phenyl-4H-1,2,4-triazol-3-yl)-N-[(pyridin-4-yl)methyl]acetamide]",> 50
2,"O=C1CCCN1c1ccc(CC(=O)N(Cc2ccncc2)C2C=CS(=O)(=O)C2)cc1 (stereo not drawn) [I-444, N-(1,1-dioxo-2,3-dihydro-1lambda6-thiophen-3-yl)-2-[4-(2-oxopyrrolidin-1-yl)phenyl]-N-[(pyridin-4-yl)methyl]acetamide]",> 50
3,"O=C(Cc1csc(C2CCCC2)n1)N(Cc1ccncc1)C1C=CS(=O)(=O)C1 (stereo not drawn) [I-445, 2-(2-cyclopentyl-1,3-thiazol-4-yl)-N-(1,1-dioxo-2,3-dihydro-1lambda6-thiophen-3-yl)-N-[(pyridin-4-yl)methyl]acetamide]",> 50
4,"Cc1nn(CC(=O)N(Cc2ccncc2)C2C=CS(=O)(=O)C2)cc1-c1ccccc1 (stereo not drawn) [I-446, N-(1,1-dioxo-2,3-dihydro-1lambda6-thiophen-3-yl)-2-(3-methyl-4-phenyl-1H-pyrazol-1-yl)-N-[(pyridin-4-yl)methyl]acetamide]",> 50
5,"O=C(Nc1ccc(CC(=O)N(Cc2ccncc2)C2C=CS(=O)(=O)C2)cc1)C1CC1 (stereo not drawn) [I-448, N-(4-{[(1,1-dioxo-2,3-dihydro-1lambda6-thiophen-3-yl)[(pyridin-4-yl)methyl]carbamoyl]methyl}phenyl)cyclopropanecarboxamide]",> 50
6,"O=C(Cc1ccc(C2CCCC2O)cc1)N(Cc1ccncc1)C1C=CS(=O)(=O)C1 (stereo not drawn) [I-449, N-(1,1-dioxo-2,3-dihydro-1lambda6-thiophen-3-yl)-2-[4-(2-hydroxycyclopentyl)phenyl]-N-[(pyridin-4-yl)methyl]acetamide]",> 50
7,"O=C(Cn1ccc(-c2ccccc2)n1)N(Cc1ccncc1)C1C=CS(=O)(=O)C1 (stereo not drawn) [I-450, N-(1,1-dioxo-2,3-dihydro-1lambda6-thiophen-3-yl)-2-(3-phenyl-1H-pyrazol-1-yl)-N-[(pyridin-4-yl)methyl]acetamide]",> 50
8,"COc1ccc(COc2cc(CC(=O)N(Cc3ccnc(OC)c3)C3C=CS(=O)(=O)C3)ccc2-c2ccc(F)cn2)cc1 (stereo not drawn) [I-451, N-(1,1-dioxo-2,3-dihydro-1lambda6-thiophen-3-yl)-2-[4-(5-fluoropyridin-2-yl)-3-[(4-methoxyphenyl)methoxy]phenyl]-N-[(2-methoxypyridin-4-yl)methyl]acetamide]",> 50
9,"CC(=O)N(C)CC(C(=O)N(Cc1ccncc1)C1C=CS(=O)(=O)C1)c1ccc(-c2ccc(F)cc2)cc1 (stereo not drawn) [I-452, N-(1,1-dioxo-2,3-dihydro-1lambda6-thiophen-3-yl)-2-{4′-fluoro-[1,1′-biphenyl]-4-yl}-3-(N-methylacetamido)-N-[(pyridin-4-yl)methyl]propanamide]",> 50
10,"COc1cc(CN(C(=O)Cc2ccc(-n3ccc(F)cc3=O)cc2F)C2C=CS(=O)(=O)C2)ccn1 (stereo not drawn) [I-453, N-(1,1-dioxo-2,3-dihydro-1lambda6-thiophen-3-yl)-2-[2-fluoro-4-(4-fluoro-2-oxo-1,2-dihydropyridin-1-yl)phenyl]-N-[(2-methoxypyridin-4-yl)methyl]acetamide]",> 50
11,"O=C(Cn1ncc2ccccc21)N(Cc1ccncc1)C1C=CS(=O)(=O)C1 (stereo not drawn) [I-454, N-(1,1-dioxo-2,3-dihydro-1lambda6-thiophen-3-yl)-2-(1H-indazol-1-yl)-N-[(pyridin-4-yl)methyl]acetamide]",> 50
12,"O=C(Cn1ncc2ccc(C(F)(F)F)cc21)N(Cc1ccncc1)C1C=CS(=O)(=O)C1 (stereo not drawn) [I-455, N-(1,1-dioxo-2,3-dihydro-1lambda6-thiophen-3-yl)-N-[(pyridin-4-yl)methyl]-2-[6-(trifluoromethyl)-1H-indazol-1-yl]acetamide]",> 50
13,"CN1CCc2c(ccn2-c2ccc(CC(=O)N(Cc3ccccc3)C3C=CS(=O)(=O)C3)cc2)C1 (stereo not drawn) [I-456, N-benzyl-N-(1,1-dioxo-2,3-dihydro-1lambda6-thiophen-3-yl)-2-(4-{5-methyl-1H,4H,5H,6H,7H-pyrrolo[3,2-c]pyridin-1-yl}phenyl)acetamide]",> 50
14,"O=C1CC(c2ccc(F)cc2)CCN1CC(=O)N(Cc1ccncc1)C1C=CS(=O)(=O)C1 (stereo not drawn) [I-457, N-(1,1-dioxo-2,3-dihydro-1lambda6-thiophen-3-yl)-2-[4-(4-fluorophenyl)-2-oxopiperidin-1-yl]-N-[(pyridin-4-yl)methyl]acetamide]",> 50
15,"CN(CC(C(=O)N(Cc1ccncc1)C1C=CS(=O)(=O)C1)c1ccc(-c2ccc(F)cc2)cc1)S(C)(=O)=O (stereo not drawn) [I-458, N-(1,1-dioxo-2,3-dihydro-1lambda6-thiophen-3-yl)-2-{4′-fluoro-[1,1′-biphenyl]-4-yl}-3-(N-methylmethanesulfonamido)-N-[(pyridin-4-yl)methyl]propanamide]",> 50
16,"CN(C)C(=O)CC(C(=O)N(Cc1ccnc(C(C)(C)O)c1)C1C=CS(=O)(=O)C1)c1ccc(S(F)(F)(F)(F)F)cc1 (stereo not drawn) [I-460, N-(1,1-dioxo-2,3-dihydro-1lambda6-thiophen-3-yl)-N-{[2-(2-hydroxypropan-2-yl)pyridin-4-yl]methyl}-N′,N′-dimethyl-2-[4-(pentafluoro-lambda6-sulfanyl)phenyl]butanediamide]",> 50
17,"O=C(Cc1ccc(N2CCC2)cc1)N(Cc1ccncc1)C1C=CS(=O)(=O)C1 (stereo not drawn) [I-461, 2-[4-(azetidin-1-yl)phenyl]-N-(1,1-dioxo-2,3-dihydro-1lambda6-thiophen-3-yl)-N-[(pyridin-4-yl)methyl]acetamide]",> 50
18,"O=C(Cc1ccc(-n2cccc2)cc1)N(CCc1ccncc1)C1C=CS(=O)(=O)C1 (stereo not drawn) [I-462, N-(1,1-dioxo-2,3-dihydro-1lambda6-thiophen-3-yl)-N-[2-(pyridin-4-yl)ethyl]-2-[4-(1H-pyrrol-1-yl)phenyl]acetamide]",> 50
19,"O=C(Cc1ccc(OC2CCC2)cc1)N(Cc1ccncc1)C1C=CS(=O)(=O)C1 (stereo not drawn) [I-463, 2-(4-cyclobutoxyphenyl)-N-(1,1-dioxo-2,3-dihydro-1lambda6-thiophen-3-yl)-N-[(pyridin-4-yl)methyl]acetamide]",> 50
20,"O=C(Cc1ccc(N2CCCC2)cc1)N(Cc1ccncc1)C1C=CS(=O)(=O)C1 (stereo not drawn) [I-464, N-(1,1-dioxo-2,3-dihydro-1lambda6-thiophen-3-yl)-N-[(pyridin-4-yl)methyl]-2-[4-(pyrrolidin-1-yl)phenyl]acetamide]",> 50
21,"O=C(Cc1ccc(-c2ccc(F)cc2)cc1C(F)(F)F)N(Cc1ccncc1)C1C=CS(=O)(=O)C1 (stereo not drawn) [I-465, N-(1,1-dioxo-2,3-dihydro-1lambda6-thiophen-3-yl)-2-[4′-fluoro-3-(trifluoromethyl)-[1,1′-biphenyl]-4-yl]-N-[(pyridin-4-yl)methyl]acetamide]",> 50
22,"O=C(Cc1ccc(-c2nccs2)cc1)N(Cc1ccncc1)C1C=CS(=O)(=O)C1 (stereo not drawn) [I-466, N-(1,1-dioxo-2,3-dihydro-1lambda6-thiophen-3-yl)-N-[(pyridin-4-yl)methyl]-2-[4-(1,3-thiazol-2-yl)phenyl]acetamide]",> 50
23,"O=C(Cc1ccc(-n2cccc2)cc1)N(Cc1ccccn1)C1C=CS(=O)(=O)C1 (stereo not drawn) [I-467, N-(1,1-dioxo-2,3-dihydro-1lambda6-thiophen-3-yl)-N-[(pyridin-2-yl)methyl]-2-[4-(1H-pyrrol-1-yl)phenyl]acetamide]",> 50
24,"N#Cc1cc(-n2cccc2)ccc1CC(=O)N(Cc1ccncc1)C1C=CS(=O)(=O)C1 (stereo not drawn) [I-468, 2-[2-cyano-4-(1H-pyrrol-1-yl)phenyl]-N-(1,1-dioxo-2,3-dihydro-1lambda6-thiophen-3-yl)-N-[(pyridin-4-yl)methyl]acetamide]",> 50
25,"Cc1ccc(-c2ccc(CC(=O)N(Cc3ccncc3)C3C=CS(=O)(=O)C3)cc2)cc1 (stereo not drawn) [I-470, N-(1,1-dioxo-2,3-dihydro-1lambda6-thiophen-3-yl)-2-{4′-methyl-[1,1′-biphenyl]-4-yl}-N-[(pyridin-4-yl)methyl]acetamide]",> 50
26,"O=C(Cc1ccc(-n2cccc2)cc1)N(C1C=CS(=O)(=O)C1)C1CCCc2cnccc21 (stereo not drawn) [I-471, N-(1,1-dioxo-2,3-dihydro-1lambda6-thiophen-3-yl)-2-[4-(1H-pyrrol-1-yl)phenyl]-N-(5,6,7,8-tetrahydroisoquinolin-5-yl)acetamide]",> 50
27,"O=C(Cc1ccc(-n2cccc2)cc1)N(Cc1ccnc2[nH]cnc12)C1C=CS(=O)(=O)C1 (stereo not drawn) [I-472, N-(1,1-dioxo-2,3-dihydro-1lambda6-thiophen-3-yl)-N-({3H-imidazo[4,5-b]pyridin-7-yl}methyl)-2-[4-(1H-pyrrol-1-yl)phenyl]acetamide]",> 50
28,"CN(C)C(=O)C(C(=O)N(Cc1ccncc1)C1C=CS(=O)(=O)C1)c1ccc(Br)cc1 (stereo not drawn) [I-474, 2-(4-bromophenyl)-N′-(1,1-dioxo-2,3-dihydro-1lambda6-thiophen-3-yl)-N,N-dimethyl-N′-[(pyridin-4-yl)methyl]propanediamide]",> 50
29,"CN(C)C(=O)CC(C(=O)N(Cc1ccncc1)C1C=CS(=O)(=O)C1)c1ccc(-c2ccc(F)cc2)cc1 (stereo not drawn) [I-475, N-(1,1-dioxo-2,3-dihydro-1lambda6-thiophen-3-yl)-2-{4′-fluoro-[1,1′-biphenyl]-4-yl}-N′,N′-dimethyl-N-[(pyridin-4-yl)methyl]butanediamide]",> 50
30,"O=C(C1CCc2cc(-n3cccc3)ccc21)N(Cc1ccncc1)C1C=CS(=O)(=O)C1 (stereo not drawn) [I-477, N-(1,1-dioxo-2,3-dihydro-1lambda6-thiophen-3-yl)-N-[(pyridin-4-yl)methyl]-5-(1H-pyrrol-1-yl)-2,3-dihydro-1H-indene-1-carboxamide]",> 50
